This passage reports Ki results from US8901313B2, “6,5-heterocyclic propargylic alcohol compounds and uses therefor” (Genentech, Inc., priority 2011, dated 2014).

The experiment deals with T1, nuclear factor-kappa B (NF-kB)-inducing kinase (NIK) (Homo sapiens, UniProt Q99558).
T1 construct: made in house; host or cells: baculovirus-infected insect cells
T1 sequence (Q99558 whole entry): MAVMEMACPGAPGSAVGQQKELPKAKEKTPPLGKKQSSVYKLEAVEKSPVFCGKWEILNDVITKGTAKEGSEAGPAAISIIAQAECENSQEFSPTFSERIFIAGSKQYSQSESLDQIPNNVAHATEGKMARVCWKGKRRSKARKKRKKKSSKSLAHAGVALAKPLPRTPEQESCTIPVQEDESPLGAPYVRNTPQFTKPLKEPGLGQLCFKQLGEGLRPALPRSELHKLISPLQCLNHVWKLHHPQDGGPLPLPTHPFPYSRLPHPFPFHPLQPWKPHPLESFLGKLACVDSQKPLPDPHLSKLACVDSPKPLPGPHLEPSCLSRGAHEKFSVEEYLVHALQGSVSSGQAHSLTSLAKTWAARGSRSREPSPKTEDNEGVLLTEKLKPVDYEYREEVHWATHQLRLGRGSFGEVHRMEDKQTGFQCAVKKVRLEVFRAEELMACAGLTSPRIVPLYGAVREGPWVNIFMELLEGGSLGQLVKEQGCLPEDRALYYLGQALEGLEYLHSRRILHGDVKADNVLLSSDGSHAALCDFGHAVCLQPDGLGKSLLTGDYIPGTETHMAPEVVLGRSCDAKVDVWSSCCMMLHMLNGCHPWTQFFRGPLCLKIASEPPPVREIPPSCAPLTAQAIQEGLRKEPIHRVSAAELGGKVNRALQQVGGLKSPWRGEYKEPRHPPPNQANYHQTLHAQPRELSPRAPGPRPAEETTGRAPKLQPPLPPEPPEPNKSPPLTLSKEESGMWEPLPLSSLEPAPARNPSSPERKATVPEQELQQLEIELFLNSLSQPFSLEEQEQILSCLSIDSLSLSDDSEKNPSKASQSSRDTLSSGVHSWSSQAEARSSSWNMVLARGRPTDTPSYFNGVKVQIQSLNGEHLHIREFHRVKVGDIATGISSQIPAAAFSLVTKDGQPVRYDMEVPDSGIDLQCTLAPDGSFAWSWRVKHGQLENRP
Kind of experiment: NIK Enzyme Inhibition Assay (Transcreener ADP assay). Format: biochemical. The following applies: purified NIK 0.2-1 nM, 10 uM ATP, fluorescence polarization, Morrison's quadratic equation; read-out: inhibitory value (Ki) for NIK. On the technique in general: Fluorescence polarisation rises when a labelled molecule tumbles more slowly, as on binding a larger partner.
Regarding `Cc1cc([C@](C)(O)C#Cc2ccc3nc(OC4COC4)n(-c4ccnc(N)n4)c3c2)no1` [Example T1.1-25, (2R)-4-[3-(2-aminopyrimidin-4-yl)-2-(oxetan-3-yloxy)benzimidazol-5-yl]-2-(5-methylisoxazol-3-yl) but-3-yn-2-ol], the Ki (as a rule, the equilibrium dissociation constant of an inhibitor or competing ligand from its target) came to 1 nM. On to `CN(C)C(=O)c1nn(-c2ccnc(N)n2)c2cc(C#CC(C)(O)c3cc(CO)on3)ccc12` (stereo not shown) [Example T1.1-26, 1-(2-aminopyrimidin-4-yl)-6-[3-hydroxy-3-[5-(hydroxymethyl)isoxazol-3-yl]but-1-ynyl]-N,N-dimethyl-indazole-3-carboxamide], for which the Ki was 1 nM.

In the case of `Cc1cc(C(C)(O)C#Cc2ccc3nc(OCCO)n(-c4ccnc(N)n4)c3c2)no1` (stereo not shown) [Example T1.1-27, 4-[3-(2-aminopyrimidin-4-yl)-2-(2-hydroxyethoxy)benzimidazol-5-yl]-2-(5-methylisoxazol-3-yl)but-3-yn-2-ol], the Ki was 2 nM. As to `CCOc1nc2ccc(C#CC3(O)CCn4ccnc43)cc2n1-c1ccnc(N)n1` (stereo not shown) [Example T1.1-28, 7-[2-[3-(2-aminopyrimidin-4-yl)-2-ethoxy-benzimidazol-5-yl]ethynyl]-5,6-dihydropyrrolo[1,2-a]imidazol-7-ol], the inhibition constant (Ki) stood at 2 nM. For `Cc1cc(C(C)(O)C#Cc2ccc3nc(OCC(F)(F)F)n(-c4ccnc(N)n4)c3c2)no1` (stereo not shown) [Example T1.1-29, 4-[3-(2-aminopyrimidin-4-yl)-2-(2,2,2-trifluoroethoxy)benzimidazol-5-yl]-2-(5-methylisoxazol-3-yl) but-3-yn-2-ol], the inhibition constant Ki was determined as 2 nM. Under `Cc1nc(C(C)(O)C#Cc2ccc3c(C(=O)N(C)C)nn(-c4ccnc(N)n4)c3c2)no1` (stereo not shown) [Example T1.1-30, 1-(2-aminopyrimidin-4-yl)-6-[3-hydroxy-3-(5-methyl-1,2,4-oxadiazol-3-yl)but-1-ynyl]-N,N-dimethyl-indazole-3-carboxamide] stands 2 nM; under `Cc1nc([C@](C)(O)C#Cc2ccc3c(c2)n(-c2ccnc(N)n2)c(=O)n3C)no1` [Example T1.1-31, 3-(2-aminopyrimidin-4-yl)-5-[(3R)-3-hydroxy-3-(5-methyl-1,2,4-oxadiazol-3-yl)but-1-ynyl]-1-methyl-benzimidazol-2-one], 2 nM; under `Cc1cc(C(C)(O)C#Cc2ccc3c(c2)n(-c2ccnc(N)n2)c(=O)n3CC2CC2)no1` (stereo not shown) [Example T1.1-32, 3-(2-aminopyrimidin-4-yl)-1-(cyclopropylmethyl)-5-[3-hydroxy-3-(5-methylisoxazol-3-yl)but-1-ynyl] benzimidazol-2-one], 2 nM. In the case of `Cc1nn(-c2ccnc(N)n2)c2cc(C#CC(C)(O)c3cc(CO)on3)ccc12` (stereo not shown) [Example T1.1-33, 4-[1-(2-aminopyrimidin-4-yl)-3-methyl-indazol-6-yl]-2-[5-(hydroxy-methyl)isoxazol-3-yl]but-3-yn-2-ol], the inhibition constant Ki amounted to 2 nM. Consider `Cc1nc([C@](C)(O)C#Cc2ccc3c(C(=O)N4CC(O)C4)nn(-c4ccnc(N)n4)c3c2)no1` [Example T1.1-34, [1-(2-aminopyrimidin-4-yl)-6-[(3R)-3-hydroxy-3-(5-methyl-1,2,4-oxadiazol-3-yl)but-1-ynyl]indazol-3-yl]-(3-hydroxyazetidin-1-yl)methanone], for which the inhibition constant Ki is 2 nM. With `Cc1nc([C@](C)(O)C#Cc2ccc3c(C(C)(C)F)nn(-c4ccnc(N)n4)c3c2)no1` [Example T1.1-35, (2R)-4-[1-(2-aminopyrimidin-4-yl)-3-(1-fluoro-1-methyl-ethyl)indazol-6-yl]-2-(5-methyl-1,2,4-oxadiazol-3-yl) but-3-yn-2-ol], the Ki worked out at 2 nM. With `Cc1nc(C(C)(O)C#Cc2ccc3c(CC(C)(O)C(F)F)nn(-c4ccnc(N)n4)c3c2)no1` (stereo not shown) [Example T1.1-36, 3-[1-(2-aminopyrimidin-4-yl)-6-[3-hydroxy-3-(5-methyl-1,2,4-oxadiazol-3-yl)but-1-ynyl]indazol-3-yl]-1,1-difluoro-2-methyl-propan-2-ol], the Ki was 2 nM. To `Cc1cc([C@](C)(O)C#Cc2ccc3c(CN4CCOCC4)nn(-c4ccnc(N)n4)c3c2)no1` [Example T1.1-38, (2R)-4-[1-(2-aminopyrimidin-4-yl)-3-(morpholinomethyl)indazol-6-yl]-2-(5-methylisoxazol-3-yl)but-3-yn-2-ol] belongs 2 nM; to `CN(C)C(=O)c1nn(-c2ccnc(N)n2)c2cc(C#CC3(O)CCn4ccnc43)ccc12` (stereo not shown) [Example T1.1-39, 1-(2-aminopyrimidin-4-yl)-6-[2-(7-hydroxy-5,6-dihydropyrrolo[1,2-a]imidazol-7-yl)ethynyl]-N,N-dimethyl-indazole-3-carboxamide], 2 nM. Under `Cc1nc([C@](C)(O)C#Cc2ccc3c(CO)nn(-c4ccnc(N)n4)c3c2)no1` [Example T1.1-40, (2R)-4-[1-(2-aminopyrimidin-4-yl)-3-(hydroxymethyl)indazol-6-yl]-2-(5-methyl-1,2,4-oxadiazol-3-yl)but-3-yn-2-ol] stands 2 nM. In the case of `Nc1nccc(-n2nc(C(=O)N3CCOCC3)c3ccc(C#CC4(O)CCn5ccnc54)cc32)n1` (stereo not shown) [Example T1.1-41, [1-(2-aminopyrimidin-4-yl)-6-[2-(7-hydroxy-5,6-dihydropyrrolo[1,2-a]imidazol-7-yl)ethynyl]indazol-3-yl]-morpholino-methanone], the Ki is 2 nM. Regarding `Cc1cc(C(C)(O)C#Cc2ccc3nc(OC4CCOCC4)n(-c4ccnc(N)n4)c3c2)no1` (stereo not shown) [Example T1.1-42, 4-[3-(2-aminopyrimidin-4-yl)-2-tetrahydropyran-4-yloxy-benzimidazol-5-yl]-2-(5-methylisoxazol-3-yl)but-3-yn-2-ol], the Ki came out at 3 nM. On to `CC(O)(C#Cc1ccc2c(CN3CC(F)(F)C3)nn(-c3ccnc(N)n3)c2c1)c1ncccn1` (stereo not shown) [Example T1.1-43, 4-[1-(2-aminopyrimidin-4-yl)-3-[(3,3-difluoroazetidin-1-yl)methyl]indazol-6-yl]-2-pyrimidin-2-yl-but-3-yn-2-ol], for which the inhibitory constant (Ki) was 3 nM. As for `COCCOc1nc2ccc(C#C[C@@](C)(O)c3cc(C)on3)cc2n1-c1ccnc(N)n1` [Example T1.1-44, (2R)-4-[3-(2-aminopyrimidin-4-yl)-2-(2-methoxyethoxy)benzimidazol-5-yl]-2-(5-methylisoxazol-3-yl)but-3-yn-2-ol], the inhibitory constant (Ki) was 3 nM. Regarding `Cc1nn(-c2ccnc(N)n2)c2cc(C#CC(C)(O)c3nc[nH]n3)ccc12` (stereo not shown) [Example T1.1-45, 4-[1-(2-aminopyrimidin-4-yl)-3-methyl-indazol-6-yl]-2-(1H-1,2,4-triazol-3-yl)but-3-yn-2-ol], the Ki is 3 nM. For `CC(O)(C#Cc1ccc2nc(OCC(F)(F)F)n(-c3ccnc(N)n3)c2c1)c1ncccn1` (stereo not shown) [Example T1.1-46, 4-[3-(2-aminopyrimidin-4-yl)-2-(2,2,2-trifluoroethoxy)benzimidazol-5-yl]-2-pyrimidin-2-yl-but-3-yn-2-ol], the inhibition constant Ki is 3 nM. As for `Cc1nc([C@](C)(O)C#Cc2ccc3nc(OC4COC4)n(-c4ccnc(N)n4)c3c2)no1` [Example T1.1-47, (2R)-4-[3-(2-aminopyrimidin-4-yl)-2-(oxetan-3-yloxy)benzimidazol-5-yl]-2-(5-methyl-1,2,4-oxadiazol-3-yl)but-3-yn-2-ol], the Ki came to 3 nM. To `CCOc1nc2ccc(C#CC(C)(O)c3ncccn3)cc2n1-c1ccnc(N)n1` (stereo not shown) [Example T1.1-48, 4-[3-(2-aminopyrimidin-4-yl)-2-ethoxy-benzimidazol-5-yl]-2-pyrimidin-2-yl-but-3-yn-2-ol] belongs 3 nM. `CC(O)(C#Cc1ccc2c(CF)nn(-c3ccnc(N)n3)c2c1)c1ncccn1` (stereo not shown) [Example T1.1-49, 4-[1-(2-aminopyrimidin-4-yl)-3-(fluoromethyl)indazol-6-yl]-2-pyrimidin-2-yl-but-3-yn-2-ol]: the Ki stood at 4 nM. For `Cc1nc([C@](C)(O)C#Cc2ccc3c(C(C)(C)O)nn(-c4nc(N)ncc4Cl)c3c2)no1` [Example T1.1-50, (2R)-4-[1-(2-amino-5-chloro-pyrimidin-4-yl)-3-(1-hydroxy-1-methyl-ethyl)indazol-6-yl]-2-(5-methyl-1,2,4-oxadiazol-3-yl) but-3-yn-2-ol], the inhibitory constant (Ki) came out at 4 nM. In the case of `COCCOc1nc2ccc(C#C[C@@](C)(O)c3noc(C)n3)cc2n1-c1ccnc(N)n1` [Example T1.1-51, (2R)-4-[3-(2-aminopyrimidin-4-yl)-2-(2-methoxyethoxy)benzimidazol-5-yl]-2-(5-methyl-1,2,4-oxadiazol-3-yl)but-3-yn-2-ol], the Ki is 4 nM. On to `Cc1nn(-c2ccnc(N)n2)c2cc(C#CC(C)(O)CF)ccc12` (stereo not shown) [Example T1.1-52, 4-[1-(2-aminopyrimidin-4-yl)-3-methyl-indazol-6-yl]-1-fluoro-2-methyl-but-3-yn-2-ol], for which the Ki worked out at 4 nM. Under `CC(O)(C#Cc1ccc2c(C(=O)N3CCOCC3)nn(-c3ccnc(N)n3)c2c1)c1ncccn1` (stereo not shown) [Example T1.1-54, [1-(2-aminopyrimidin-4-yl)-6-(3-hydroxy-3-pyrimidin-2-yl-but-1-ynyl)indazol-3-yl]-morpholino-methanone] stands 4 nM; under `CC(=O)N1CC(Oc2nc3ccc(C#CC(C)(O)c4cc(C)on4)cc3n2-c2ccnc(N)n2)C1` (stereo not shown) [Example T1.1-55, 1-[3-[1-(2-aminopyrimidin-4-yl)-6-[3-hydroxy-3-(5-methylisoxazol-3-yl)but-1-ynyl]benzimidazol-2-yl]oxyazetidin-1-yl]ethanone], 4 nM; under `CC(C)(O)c1nn(-c2ccnc(N)n2)c2cc(C#CC(C)(O)c3ccccn3)ccc12` (stereo not shown) [Example T1.1-56, 4-[1-(2-aminopyrimidin-4-yl)-3-(1-hydroxy-1-methyl-ethyl)indazol-6-yl]-2-(2-pyridyl)but-3-yn-2-ol], 4 nM. `CC(C)(O)c1nn(-c2ccnc(N)n2)c2cc(C#CC(C)(O)c3ncccn3)ccc12` (stereo not shown) [Example T1.1-57, 4-[1-(2-aminopyrimidin-4-yl)-3-(1-hydroxy-1-methyl-ethyl)indazol-6-yl]-2-pyrimidin-2-yl-but-3-yn-2-ol]: the Ki is 5 nM.
